Earlier results as cited in patent US20040198708A1, “Formulations of mometasone and a bronchodilator for pulmonary administration” (priority 2000, published 2004).

Columns and labels:
HPA axis [1] = details: mice, inhaled; Chapman et al. (1998)
HPA axis [2] = details: humans, inhaled, dosages of up to 800 mcg daily; Bernstein et al. (1999)
[3] = tested on: patients with mild to moderate persistent asthma; details: inhaled once daily, Nayak et al. (2000)

## C[C@@H]1C[C@H]2[C@@H]3CCC4=CC(=O)C=C[C@]4(C)[C@@]3(Cl)[C@@H](O)C[C@]2(C)[C@@]1(OC(=O)c1ccco1)C(=O)CCl [mometasone furoate, (11β,16α)-9,21-dichloro-17-[(2-furanylcarbonyl)oxy]-11-hydroxy-16-methylpregna-1,4-diene-3,20-dione]
HPA axis [1]
  Suppression of the HPA axis: has not been reported
HPA axis [2]
  HPA axis suppression: did not cause HPA axis suppression
[3]
  Effectiveness in treating asthma: effective
